Assay results reported in US20120309699A1, “COMPOUNDS HAVING ANTI-INFLAMMATORY ACTIVITY” (Consejo Superior de Investigaciones Cientificas (CSIC), priority 2009, published 2012).
Entries after “also recorded” stand apart in the source; their conditions may differ.

Assays:
[1] = system: pathogenic bacteria (E. coli O157, Salmonella and Listeria monocytogenes Scott A); experiment: Adhesion of pathogenic bacteria to HT-29 cell cultures; assay type: cell-based, human; details: HT-29, 25 μM/well, vs positive control C+
Procedure: (§1) We used two cell models for colon cancer to evaluate the anti-adhesion capacity of compounds derived from resveratrol against pathogenic bacteria in food: Caco-2 (a model frequently used to measure the adhesion of microorganisms) and HT-29 (a model frequently used to measure immune response to infections by enteropathogens). Caco-2 and HT-29 cells were grown in EMEM and DMEM respectively, for which 24 well plates were used at 37° C., 5% CO2, 95% air until a single layer of confluent epithelium formed (cell concentration per well 2×10^5 and 6×10^5 respectively). Pathogenic bacteria (E. coli O157, Salmonella and Listeria monocytogenes Scott A) were placed in contact with the various compounds derived from resveratrol for 1 hour and subsequently the bacteria together with the different compounds in a concentration of 25 μM/well were inoculated on the cell cultures, incubating the plates for 2 hours at 37° C., 5% CO2, 95% air. The plates were then washed 3 times with 1 ml of sterile PBS and 1 ml of distilled water with 20% of glycerol was added, and they were frozen at −70° C. to lyse the epithelial cells. […] Concentrations of the various derivatives tested were detected in the digestive tracts of experimental animals and therefore the test lay within the range of physiologically achievable concentrations.

C57BL/6 mice = experiment: DSS (sodium dextran sulfate) model for intestinal inflammation: colon length, weight, DAI, appearance, colonic architecture; assay type: in vivo; details: after 1% DSS for 8 days; HED 10 mg
Procedure: (§2) A model for intestinal inflammation based on the administration of DSS (sodium dextran sulfate) to C57BL/6 mice was used. At the present time there is no consensus about which overall is the best model for experimental colitis. The DSS model has been widely used because it has clinical, morphological and analytical characteristics which up to a point are similar to those specific to patients with ulcerative colitis or Crohn's disease.
(§3) The in vivo inflammation test was carried out using duplicates separated by a number of months. In each test each group of animals (n=8) was fed a standard diet supplemented with 2.3 mg/day/kg (animal weight) of each of the compounds, depending upon the group. This dose assumes the ingestion of 0.05 mg/day (50 μg/day) per mouse (having a mean weight of 22 grams). This dose extrapolated to a human being is equivalent to 10 mg in an adult weighing 70 kg; using the formula HED (human equivalent dose)=animal dose in mg/kg×(animal weight kg/human weight in kg)^0.33.
(§4) In each test the mice were fed for 3 weeks during which 1% DSS was included in their drink. The DSS was maintained for 8 days (and the same food as from the start). Then the DSS was withdrawn and the animals were allowed to recover for another 6 days (again with the same food).
Groups included in the investigation: control (standard food), control-DSS, DSS-resveratrol (RES), DSS-piceid (PIC), DSS-resveratrol-diglucoside (DIGLUC), DSS-piceid-butyrate (BUT), DSS-piceid-octanoate (OCT).
• Monitoring of weight, food and drink ingestion. The mice in all groups were individually monitored, with weight, quantity of food ingested and water drunk each day being monitored throughout the experimental test. • Blood and water in feces. The water content of feces, as an indication of diarrhea, was evaluated using the difference in weight following evaporation in a stove. Blood was measured using reactive strips based on the guaiacol-peroxidase reaction (HealthCare Diagnosis Inc.). The samples were diluted 1:50 in saline solution and applied to the reactive strips. After 60 sec the color was compared with the template provided by the manufacturer. The reaction was measured using a scale from 0 (negative result) to 4 (most intense color change). • Length of colon. After sacrifice the colon was obtained from each mouse, extended and measured. Samples of the colonic mucosa for various tests mentioned below were obtained by scraping. • Myeloperoxidase activity in colonic mucosa. This was evaluated by spectrophotometry at 460 nm using O-dianisidine reagent and hydrogen peroxide. The change in absorbance at 460 nm was monitored over 10 minutes in a V-630 spectrophotometer (Jasco, Tokyo, Japan). MPO activity was expressed as mU of activity/mg of fresh tissue, comparing the increase in absorbance with a standard straight line obtained using leukocyte myeloperoxidase (Sigma). • Prostaglandins in colonic mucosa. Levels of PGE2 were measured in colonic mucosa homogenates using an immunoenzyme method using a Cayman Chem. kit (USA). • “Antibody array”. The “antibody array” kit from RayBiotech (“RayBio Mouse Inflammation Antibody Array 1”) was used to determine cytokines in colonic tissue samples. The “RayBio Mouse inflammation antibody arrays” are a fast and accurate system for determining the expression profile of multiple cytokines (in this case 40) in a very sensitive way. The sensitivity is 100 times greater than that of the ELISA method. The measurement was made in duplicate following the manufacturer's instructions. Membranes were blocked with blocking buffer and then incubated with 300 μg of protein for 2 hours. Finally the membranes were incubated with a cocktail of antibodies conjugated with biotin and then radish peroxidase marked with streptavidin. The signal was detected by chemoluminescence. Images were captured using a CCD camera fitted to a Biorad Chemidoc XRS imaging station. Signal intensities (densitometry) were analyzed using ScanAlyze software. […]

enterobacteria = experiment: Microbiota counts in feces: enterobacteria; assay type: in vivo, mice; details: after administration of DSS; HED 10 mg
Procedure: as §2
as §3, with “kg)^0.33. […]” for “kg)^0.33.”
(§5) • Monitoring of weight, food and drink ingestion. The mice in all groups were individually monitored, with weight, quantity of food ingested and water drunk each day being monitored throughout the experimental test. • Blood and water in feces. The water content of feces, as an indication of diarrhea, was evaluated using the difference in weight following evaporation in a stove. Blood was measured using reactive strips based on the guaiacol-peroxidase reaction (HealthCare Diagnosis Inc.). […] The reaction was measured using a scale from 0 (negative result) to 4 (most intense color change). • Length of colon. After sacrifice the colon was obtained from each mouse, extended and measured. […] This was evaluated by spectrophotometry at 460 nm using O-dianisidine reagent and hydrogen peroxide. The change in absorbance at 460 nm was monitored over 10 minutes in a V-630 spectrophotometer (Jasco, Tokyo, Japan). […] Levels of PGE2 were measured in colonic mucosa homogenates using an immunoenzyme method using a Cayman Chem. kit (USA). • “Antibody array”. […] The signal was detected by chemoluminescence. […]

[2] = Time of arrival and concentration of resveratrol in the colon of healthy mice; details: gastric probang, 84 mg/kg resveratrol
COX-2 = details: see ES2266271; cited from earlier work
fibrinogen = experiment: Systemic inflammation marker fibrinogen (DSS model); assay type: in vivo, mice; details: vs DSS group; HED 10 mg
Procedure: as §2, §3, §4
(§6) • Monitoring of weight, food and drink ingestion. The mice in all groups were individually monitored, with weight, quantity of food ingested and water drunk each day being monitored throughout the experimental test. • Blood and water in feces. The water content of feces, as an indication of diarrhea, was evaluated using the difference in weight following evaporation in a stove. Blood was measured using reactive strips based on the guaiacol-peroxidase reaction (HealthCare Diagnosis Inc.). […] The reaction was measured using a scale from 0 (negative result) to 4 (most intense color change). • Length of colon. After sacrifice the colon was obtained from each mouse, extended and measured. […] This was evaluated by spectrophotometry at 460 nm using O-dianisidine reagent and hydrogen peroxide. The change in absorbance at 460 nm was monitored over 10 minutes in a V-630 spectrophotometer (Jasco, Tokyo, Japan). MPO activity was expressed as mU of activity/mg of fresh tissue, comparing the increase in absorbance with a standard straight line obtained using leukocyte myeloperoxidase (Sigma). • Prostaglandins in colonic mucosa. Levels of PGE2 were measured in colonic mucosa homogenates using an immunoenzyme method using a Cayman Chem. kit (USA). • “Antibody array”. […] The signal was detected by chemoluminescence. […] Signal intensities (densitometry) were analyzed using ScanAlyze software. […] The changes in cytokine levels were expressed as mean±SD in arbitrary density units. […]

[3] = system: pathogenic bacteria (E. coli O157, Salmonella and Listeria monocytogenes Scott A); experiment: Adhesion of pathogenic bacteria to Caco-2 cell cultures; assay type: cell-based, human; details: Caco-2, 25 μM/well, vs positive control C+
Procedure: as §1

haptoglobin = experiment: Systemic inflammation marker haptoglobin (DSS model); assay type: in vivo, mice; details: vs DSS group; HED 10 mg
Procedure: as §2, §3, §4, §6

COX-1 = COX-1 (Homo sapiens, UniProt P23219); details: cited from earlier work
Sequence of COX-1 (P23219 24-599): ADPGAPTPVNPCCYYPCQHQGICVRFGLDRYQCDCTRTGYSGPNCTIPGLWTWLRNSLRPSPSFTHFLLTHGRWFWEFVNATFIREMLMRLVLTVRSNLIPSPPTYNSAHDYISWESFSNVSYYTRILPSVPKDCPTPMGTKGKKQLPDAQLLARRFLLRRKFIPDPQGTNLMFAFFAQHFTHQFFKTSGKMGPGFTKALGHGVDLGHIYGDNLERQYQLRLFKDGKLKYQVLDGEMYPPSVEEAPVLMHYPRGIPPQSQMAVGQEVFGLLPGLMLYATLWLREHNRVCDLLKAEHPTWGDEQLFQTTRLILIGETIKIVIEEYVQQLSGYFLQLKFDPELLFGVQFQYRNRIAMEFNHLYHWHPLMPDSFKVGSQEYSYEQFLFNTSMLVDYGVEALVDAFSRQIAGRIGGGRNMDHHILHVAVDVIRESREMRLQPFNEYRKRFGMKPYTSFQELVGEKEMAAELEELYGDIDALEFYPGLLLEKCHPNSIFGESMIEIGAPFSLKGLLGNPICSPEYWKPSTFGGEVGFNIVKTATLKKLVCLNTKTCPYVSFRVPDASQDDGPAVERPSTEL

E. coli = experiment: Microbiota counts in feces: E. coli; assay type: in vivo, mice; details: after administration of DSS; HED 10 mg
Procedure: as §2
as §3, with “kg)^0.33. […]” for “kg)^0.33.”
as §5

bifidobacteria = experiment: Microbiota counts in feces: bifidobacteria; assay type: in vivo, mice; details: HED 10 mg
Procedure: as §2, §3, §4, §6

SMILES: Oc1ccc(/C=C/c2cc(O)cc(O)c2)cc1 [RES, trans-resveratrol, reference compound]
- Adhesion of pathogenic bacteria to intestinal epithelium [1]: reduced the adhesion
- General appearance of the mice (C57BL/6 mice): OCT (D)≈BUT (C)>>RES≈DIGLUC≈PIC (B)>>control-DSS (A); also recorded: better appearance than the control-DSS
- Enterobacteria count in feces (enterobacteria): clear reduction
- Time of maximum resveratrol in the colon [2]: around 5 hours
- Transcription of COX-2 (COX-2): inhibits the transcription of COX-2
- Blood fibrinogen levels (fibrinogen): clear tendency to improvement
- Adhesion of pathogenic bacteria to the intestinal epithelium [3]: reduced the adhesion
- Blood haptoglobin levels (haptoglobin): clear tendency to improvement
- Enzyme activity of COX-1 (COX-1): inhibits the enzyme activity of COX-1
- E. coli count in feces (E. coli): clear reduction
- Bifidobacteria count in feces (bifidobacteria; after administration of DSS): slightly higher counts

SMILES: OC[C@H]1O[C@@H](Oc2cc(O)cc(/C=C/c3ccc(O)cc3)c2)[C@H](O)[C@@H](O)[C@@H]1O [PIC, resveratrol-3-O-glucoside, reference compound]
- General appearance of the mice (C57BL/6 mice): OCT (D)≈BUT (C)>>RES≈DIGLUC≈PIC (B)>>control-DSS (A)

SMILES: OC[C@H]1O[C@@H](Oc2cc(/C=C/c3ccc(O)cc3)cc(O[C@@H]3O[C@H](CO)[C@@H](O)[C@H](O)[C@H]3O)c2)[C@H](O)[C@@H](O)[C@@H]1O [DIGLUC, trans-resveratrol-3,5-di-O-β-D-glucopyranoside]
- General appearance of the mice (C57BL/6 mice): OCT (D)≈BUT (C)>>RES≈DIGLUC≈PIC (B)>>control-DSS (A)
- Blood fibrinogen levels (fibrinogen): most notable differences
- Blood haptoglobin levels (haptoglobin): clear tendency to improvement
- Bifidobacteria count in feces (bifidobacteria; 3 weeks of supplemented diet, prior to DSS): highest count
